From patent publication US20060020029A1, “Pharmaceutical compositions from ethnobotanicals” (priority 2004, published 2006)
In brackets after ≈: the same amount, converted by molar mass. Several values for one entry are separate records, joined by “and”; a condition that tells them apart may be missing. Equal values may be shown once.

Legend:
RSV-A2 = experiment: CPE assay, RSV-A2 in Hep-2 cells
Procedure: The cell line was propagated in MEM supplemented with 10% heat-inactivated fetal bovine serum (FBS) containing 100 μg/ml of antibiotics (streptomycin/penicillin). […] The overnight medium (MEM containing 10% FBS) was removed, and wells were rinsed twice with 1× phosphate buffer saline (PBS, 200 μl) before adding 10×TCID50 of RSV suspension in fresh medium (MEM plus 2% FBS) to each well, except for cell only wells. […] CellTiter 96 Aqueous Non-Radioactive Cell Proliferation Assay (Promega) was used to monitor the antiviral activity following the manufacturer's instruction. After incubation, the cells were rinsed twice with 200 μl of 1×PBS prior to the addition of 100 μl of fresh medium (MEM plus 10% FBS). […] The extent of cell viability was measured at 490 nm using an ELISA reader, and the absorbance was used to calculate percent inhibition. Antiviral activity of each EB fraction or ribavirin is expressed as IC50, which represents the concentration of the test substance required to reduce the virus infection (as measured by the destruction of the host cells) by 50%.
Hep-2 cells were used in the CPE assay to determine anti-RSV properties.

RSV A2 = experiment: Cotton rat RSV infection model, pulmonary titer; conditions: for RSV Pulmonary Titer Mean ± SD / RSV Pulmonary Titer in individual CR (A-D): harvest day 4
Procedure: All groups consisted of four randomly selected cotton rats. All test materials were administered intraperitoneally with once daily dosing. The placebo group was administered distilled water at volumes and schedules identical to the other groups receiving investigational test articles. In general, timing of administration of ribavarin to the ribavarin-treated group paralleled that of the other treatment groups except that initiation of dosing was on Day 1 for Experiments 1 and 2 and Day 0 for Experiment 3. The dose of ribavarin was 90 mg/kg/day in Experiments 1 and 3 and 180 mg/kg/day in Experiment 2. All animals were inoculated intranasally with approximately 100 median cotton rat infectious doses (CRID50) of RSV A2 on Day 0. Experiments were terminated on either Day 3 or 4 post-infection. […] On the day that the experiment was terminated, all CRs were sacrificed using CO2 to asphyxiate the animals. The lungs from the animals were subsequently removed. The lungs of sacrificed animals were removed, rinsed in sterile phosphate-buffered saline (PBS; pH 7.2) and weighed. Each set of lungs was then transpleurally lavaged using 3 ml of 2% FCS-MEM media. The resulting lung fractions were kept on ice until they were assayed for RSV. The lung fractions of animals from each group were tested for the levels of RSV present.

[1] = 12.5 mg/kg/day B.I.D i.p. D0-D3, 50% DMSO
[2] = 25 mg/kg/day B.I.D i.p. D0-D3, 50% DMSO

## O=C(/C=C/c1ccc(O)c(O)c1)OC1CC(O)(C(=O)O)CC(OC(=O)/C=C/c2ccc(O)c(O)c2)C1O (stereo not drawn) [CJ4-16-4, 3,5-di-O-caffeoylquinic acid]
Hep-2 cells
  CC50: > 400000 nM
  CC50, Hep 2: > 200 µg/mL
  cytotoxicity in Hep-2 cells (in words): no significant cytotoxicity
RSV-A2; Hep-2 cells, CPE assay
  EC50, RSV-A2: 0.084 µg/mL (≈ 0.163 µM)
RSV-A2; read-out: EC50, RSV-A2, μM using the estimated FW-516
  EC50: 0.163 µM
RSV A2; 12.5 mg/kg/day
  inhibition of RSV infection in cotton rat model: over one log
RSV A2; [1]
  RSV Pulmonary Titer Mean ± SD: 3.3 ± 0.0 log10/g lung
  RSV Pulmonary Titer in individual CR (A-D): 3.3 log10/g lung
RSV A2; 12.5 mg/kg/day B.I.D i.p. D0-D3, vs placebo
  Reduction: 1.1 Log 10
RSV A2; [2]
  RSV Pulmonary Titer Mean ± SD: 3.2 ± 0.3 log10/g lung
  RSV Pulmonary Titer in individual CR (A-D): 2.8 log10/g lung and 3.3 log10/g lung (3×)
RSV A2; 25 mg/kg/day B.I.D i.p. D0-D3, vs placebo
  Reduction: 1.2 Log 10
